Counter-ions that a name gives are not always drawn.
System: anesthetized rats
Test: Anesthetized rat spirometry screening assay (ventilatory activity, minute volume)
Format: in vivo
Details: increase in minute volume (VE); for change in vivo at 0.3 mg/kg: 0.3 mg/kg IV bolus, read-out: VE % Inc @ 0.3 mg/kg IV; for change in vivo at 3 mg/kg: 3.0 mg/kg IV bolus, read-out: VE % Inc @ 3.0 mg/kg IV
Description: Anesthetized rats provide a quick method of screening compounds for respiratory and cardiovascular activity.
Rats were initially anesthetized with 3% isoflurane (inhaled) and femoral artery and vein cannulas were surgically inserted. Once cannulated, the rats were transitioned to urethane anesthesia (1.5 g/kg; i.v.) and a tracheal cut-down was performed. After placing the tracheal cannula, it was connected to a pneumotachometer to record respiratory airflow from which respiratory rate (RR), tidal volume (VT), and their product minute volume (MV, also termed VE) were derived. After the surgical preparation was complete, animals were allowed to stabilize for 30 minutes while respiratory rate, tidal volume, minute volume, blood pressure and heart rate were recorded continuously. Arterial blood gases (ABG) were obtained from arterial blood collected from the femoral artery. ABG measurements were taken before and 6 minutes after vehicle and each dose of compound administered. Compounds being screened were administered via bolus injections through the venous cannula followed by a saline flush (total time of administration is approximately 30 seconds), and the animal was monitored for at least 6 minutes for changes in cardiovascular efforts. Compounds were prepared in formulations identified to ensure optimal solubility. As such, vehicle controls were matched for the formulation of each compound tested. Dosing of the compounds being screened was conducted at 0.1 and/or 0.3 mg/kg and/or 3 mg/kg The next dose was not administered until all cardiovascular and respiratory measures had returned to baseline levels. The positive control compounds used were N-[4,6-di-(n-propylamino)-[1,3,5]triazin-2-yl]-N,O-dimethyl-hydroxylamine or N-[2,6-di-(n-propylamino)-[1,3]pyrimidin-4-yl]-N,O-dimethyl-hydroxylamine (both administered at the end of each screening experiment (0.3 mg/kg dose) to validate the experiment and also to serve as a measure with which the compound being screened could be compared.
Data were analyzed by collecting cardiovascular and respiratory data in 30 second averages (BINs). Data were plotted 2 minutes before challenge and then 6 minutes after challenge.

CCCNc1nc(NC)c2nc(NCC(O)CO)nc(NC)c2n1 (centres unmarked) [Compound 121, 3-(4,8-Bis-methylamino-6-propylamino-pyrimido[5,4-d]pyrimidin-2-ylamino)-propane-1,2-diol]
change in vivo at 0.3 mg/kg: 0% | change in vivo at 3 mg/kg: 38%

CC[C@@H](C)Nc1nc(NC)c2nc(NC[C@H](C)O)nc(NC)c2n1 [Compound 101, (S)-1-[6-((R)-sec-Butylamino)-4,8-bis-methylamino-pyrimido[5,4-d]pyrimidin-2-ylamino]-propan-2-ol]
change in vivo at 0.3 mg/kg: 20% | change in vivo at 3 mg/kg: 129%

C#CCNc1nc(NC)nc2c(NCCO)nc(NC)nc12 [Compound 58a, 2-(2,6-Bis-methylamino-8-prop-2-ynylamino-pyrimido[5,4-d]pyrimidin-4-ylamino)-ethanol Hydrochloride]
change in vivo at 0.3 mg/kg: 10%

CCCNc1nc(NC)nc2c(N[C@H](C)CO)nc(NC)nc12 [Compound 20a, (R)-2-(2,6-Bis-methylamino-8-propylamino-pyrimido[5,4-d]-pyrimidin-4-ylamino)-propan-1-ol Hydrochloride]
change in vivo at 0.3 mg/kg: 107%

CCNc1nc(NC[C@@H](C)O)nc2c(NCC)nc(N)nc12 [Compound 171, (R)-1-(6-Amino-4,8-bis-ethylamino-pyrimido[5,4-d]-pyrimidin-2-ylamino)-propan-2-ol]
change in vivo at 0.3 mg/kg: 17% | change in vivo at 3 mg/kg: 175%

CNc1nc(N(C)C)nc2c(NC)nc(NCCO)nc12 [Compound 92, 2-(6-Dimethylamino-4,8-bis-methylamino-pyrimido[5,4-d]-pyrimidin-2-ylamino)-ethanol]
change in vivo at 0.3 mg/kg: 49% | change in vivo at 3 mg/kg: 148%

C=CCNc1nc(NC)c2nc(NCCO)nc(NC)c2n1 [Compound 154, 2-(6-Allylamino-4,8-bis-methylamino-pyrimido[5,4-d]pyrimidin-2-ylamino)-ethanol]
change in vivo at 0.3 mg/kg: 40% | change in vivo at 3 mg/kg: 103%

CCCNc1nc(NC)c2nc(N[C@@H]3CCCC[C@H]3O)nc(NC)c2n1 [Compound 137, (1R,2R)-2-(4,8-Bis-methylamino-6-propylamino-pyrimido[5,4-d]pyrimidin-2-ylamino)-cyclohexanol]
change in vivo at 0.3 mg/kg: 22% | change in vivo at 3 mg/kg: 103%

CCCNc1nc(NC)nc2c(N[C@@H]3CCC[C@H]3O)nc(NC)nc12 [Compound 87, (1R,2R)-2-(2,6-Bis-methylamino-8-propylamino-pyrimido[5,4-d]pyrimidin-4-ylamino)-cyclopentanol]
change in vivo at 0.3 mg/kg: 39% | change in vivo at 3 mg/kg: 129%

CCCNc1nc(NC)nc2c(N[C@H]3c4ccccc4C[C@H]3O)nc(NC)nc12 [Compound 79, (1S,2R)-1-(2,6-Bis-methylamino-8-propylamino-pyrimido[5,4-d]pyrimidin-4-ylamino)-indan-2-ol]
change in vivo at 0.3 mg/kg: 56% | change in vivo at 3 mg/kg: 162%

CCCNc1nc(NC)c2nc(N[C@H]3CCCC[C@H]3O)nc(NC)c2n1 [Compound 131, (1R,2S)-2-(4,8-Bis-methylamino-6-propylamino-pyrimido[5,4-d]pyrimidin-2-ylamino)-cyclohexanol]
change in vivo at 0.3 mg/kg: 18% | change in vivo at 3 mg/kg: 142%

CNc1nc(NC[C@H](C)O)nc2c(NC)nc(N)nc12 [Compound 152, (S)-1-(6-Amino-4,8-bis-methylamino-pyrimido[5,4-d]-pyrimidin-2-ylamino)-propan-2-ol]
change in vivo at 0.3 mg/kg: 7% | change in vivo at 3 mg/kg: 89%

CCCNc1nc(NC)nc2c(NCCO)nc(NC)nc12 [Compound 4a, 2-(2,6-Bis-methylamino-8-propylamino-pyrimido[5,4-d]pyrimidin-4-ylamino)-ethanol hydrochloride]
change in vivo at 0.3 mg/kg: 90%

CCCNc1nc(NC)nc2c(NCC(C)O)nc(NC)nc12 (centres unmarked) [Compound 10a, 1-(2,6-Bis-methylamino-8-propylamino-pyrimido[5,4-d]-pyrimidin-4-ylamino)-propan-2-ol hydrochloride]
change in vivo at 0.3 mg/kg: 93%

CCNc1nc(NCC)c2nc(NC[C@@H](C)O)nc(NCC)c2n1 [Compound 186, (R)-1-(4,6,8-Tris-ethylamino-pyrimido[5,4-d]pyrimidin-2-ylamino)-propan-2-ol]
change in vivo at 0.3 mg/kg: 37% | change in vivo at 3 mg/kg: 90%

CCCNc1nc(NC)nc2c(N[C@H]3CCCC[C@@H]3O)nc(NC)nc12 [Compound 83, (1S,2S)-2-(2,6-Bis-methylamino-8-propylamino-pyrimido[5,4-d]pyrimidin-4-ylamino)-cyclohexanol]
change in vivo at 0.3 mg/kg: 176% | change in vivo at 3 mg/kg: 153%

CC[C@H](C)Nc1nc(NC)nc2c(NCC(C)(C)O)nc(NC)nc12 [Compound 42a, 1-[8-((S)-sec-Butylamino)-2,6-bis-methylamino-pyrimido[5,4-d]-pyrimidin-4-ylamino]-2-methyl-propan-2-ol Hydrochloride]
change in vivo at 0.3 mg/kg: 76% | change in vivo at 3 mg/kg: 149%

CCCNc1nc(NCC)c2nc(NC[C@H](C)O)nc(NCC)c2n1 [Compound 166, (S)-1-(4,8-Bis-ethylamino-6-propylamino-pyrimido[5,4-d]-pyrimidin-2-ylamino)-propan-2-ol]
change in vivo at 0.3 mg/kg: 88% | change in vivo at 3 mg/kg: 91%

CCCNc1nc(NC)nc2c(NCC(O)CO)nc(NC)nc12 (centres unmarked) [Compound 75a, 3-(2,6-Bis-methylamino-8-propylamino-pyrimido[5,4-d]pyrimidin-4-ylamino)-propane-1,2-diol Hydrochloride]
change in vivo at 0.3 mg/kg: 158% | change in vivo at 3 mg/kg: 180%

CCCNc1nc(NC)nc2c(NCC(O)CC)nc(NC)nc12 (centres unmarked) [Compound 24a, 1-(2,6-Bis-methylamino-8-propylamino-pyrimido[5,4-d]pyrimidin-4-ylamino)-butan-2-ol Hydrochloride]
change in vivo at 0.3 mg/kg: 100% | change in vivo at 3 mg/kg: 121%

CCCNc1nc(NC)c2nc(N(C)CC(C)(C)O)nc(NC)c2n1 [Compound 96, 1-[(4,8-Bis-methylamino-6-propylamino-pyrimido[5,4-d]pyrimidin-2-yl)-methyl-amino]-2-methyl-propan-2-ol]
change in vivo at 0.3 mg/kg: 70% | change in vivo at 3 mg/kg: 96%

CCCNc1nc(NC)nc2c(N(C)CC(C)(C)O)nc(NC)nc12 [Compound 76, 1-[(2,6-Bis-methylamino-8-propylamino-pyrimido[5,4-d]pyrimidin-4-yl)-methyl-amino]-2-methyl-propan-2-ol]
change in vivo at 0.3 mg/kg: 37% | change in vivo at 3 mg/kg: 71%

CNc1nc(NCCO)c2nc(NC)nc(NC)c2n1 [Compound 52a, 2-(2,6,8-Tris-methylamino-pyrimido[5,4-d]pyrimidin-4-ylamino)-ethanol Hydrochloride]
change in vivo at 0.3 mg/kg: 26%

CCCNc1nc(NCC)nc2c(NCCO)nc(NCC)nc12 [Compound 27a, 2-(2,6-Bis-ethylamino-8-propylamino-pyrimido[5,4-d]pyrimidin-4-ylamino)-ethanol Hydrochloride]
change in vivo at 0.3 mg/kg: 110%

CCCNc1nc(NC)nc2c(N[C@@H]3c4ccccc4C[C@@H]3O)nc(NC)nc12 [Compound 77, (1R,2S)-1-(2,6-Bis-methylamino-8-propylamino-pyrimido[5,4-d]-pyrimidin-4-ylamino)-indan-2-ol]
change in vivo at 0.3 mg/kg: 135% | change in vivo at 3 mg/kg: 170%

CCCNc1nc(NCC(F)(F)F)nc2c(NCC(C)(C)O)nc(NCC(F)(F)F)nc12 [Compound 34a, 2-Methyl-1-[8-propylamino-2,6-bis-(2,2,2-trifluoro-ethylamino)-pyrimido[5,4-d]pyrimidin-4-ylamino]-propan-2-ol Hydrochloride]
change in vivo at 0.3 mg/kg: 2%

CNc1nc(NCc2ccccc2)c2nc(NC)nc(NCCO)c2n1 [Compound 64a, 2-(8-Benzylamino-2,6-bis-methylamino-pyrimido[5,4-d]-pyrimidin-4-ylamino)-ethanol Hydrochloride]
change in vivo at 0.3 mg/kg: 32% | change in vivo at 3 mg/kg: 157%

CCCNc1nc(NCC)c2nc(NC[C@@H](C)O)nc(NCC)c2n1 [Compound 169, (R)-1-(4,8-Bis-ethylamino-6-propylamino-pyrimido[5,4-d]-pyrimidin-2-ylamino)-propan-2-ol]
change in vivo at 0.3 mg/kg: 113% | change in vivo at 3 mg/kg: 142%

CC[C@@H](C)Nc1nc(NC)nc2c(NCC(C)(C)O)nc(NC)nc12 [Compound 40a, 1-[8-((R)-sec-Butylamino)-2,6-bis-methylamino-pyrimido[5,4-d]-pyrimidin-4-ylamino]-2-methyl-propan-2-ol Hydrochloride]
change in vivo at 0.3 mg/kg: 79% | change in vivo at 3 mg/kg: 158%

CCNc1nc(NCC(C)(C)O)c2nc(NCC)nc(NCC(F)F)c2n1 [Compound 47a, 1-[8-(2,2-difluoro-ethylamino)-2,6-bis-ethylamino-pyrimido[5,4-d]pyrimidin-4-ylamino]-2-methyl-propan-2-ol hydrochloride]
change in vivo at 0.3 mg/kg: 31%

CCCNc1nc(NC)c2nc(NCCO)nc(NC)c2n1 [Compound 91, 2-(4,8-Bis-methylamino-6-propylamino-pyrimido[5,4-d]pyrimidin-2-ylamino)-ethanol]
change in vivo at 0.3 mg/kg: 16%

Reference: patent US10294228B2, “Breathing control modulating compounds, and methods of making and using same” (NEURAD LTD., priority 2015, dated 2019)
